≈ marks a conversion by molar mass, not a printed value. Read-outs that look alike come from different tables or passages of the source.
Experiments:
Format in all cases: cell-based
E. coli BW25113 = assay: MIC, microdilution in 96-well plates; details: Escherichia coli, read-out: MIC
Method: (§1) A microdilution method in 96-well plates was used and the MIC protocol established by the Clinical Laboratory Standards Institute was followed. From a growing subculture, a 1:10000 inoculum of each strain in Luria-Bertani media was prepared and aliquoted 100 μL in 4 columns of wells, except for the top row wells, which contained 200 μL of inoculum. A solution of gyramide C2 was aliquoted into 3 of the wells containing 200 μL and DMSO was added to the 4th well. The liquid in each of wells was mixed with a multi-channel pipet and 100 μL was transferred to the next well and mixed. The 2-fold dilution was continued down the 96-well plate until 100 μL was left, which was discarded. The plates were incubated at 37° C. with shaking for 16-18 hours. The MIC was determined as the lowest concentration that inhibited growth and had no turbidity by visual inspection.
(§2) Minimum inhibitory concentrations of various gyramide compounds against 20 strains of bacteria were determined using the procedure described above.

Edwardsiella tarda = assay: MIC, microdilution in 96-well plates
Method: as §1, §2

E. coli JW5503 (deltolC) = assay: MIC, 20-strain panel; details: Escherichia coli
Method: as §1, §2

E. coli MG1655 = assay: MIC, 20-strain panel; details: Escherichia coli, read-out: MIC
Method: as §1, §2

[1] = test system: Klebsiella pneumoniae subsp. pneumoniae; assay: MIC, 20-strain panel
Method: as §1, §2

[2] = test system: Salmonella enterica subsp. enterica typhimurium; assay: MIC, 20-strain panel
Method: as §1, §2

Shigella flexneri = assay: MIC, 20-strain panel
Method: as §1, §2

[3] = test system: Staphylococcus aureus subsp. aureus; assay: MIC, 20-strain panel; details: read-out: MIC
Method: as §1, §2

[4] = test system: Staphylococcus epidermidis; assay: MIC, 20-strain panel
Method: as §1, §2

[5] = test system: Staphylococcus saprophyticus subsp. saprophyticus; assay: MIC, 20-strain panel
Method: as §1, §2

Streptococcus agalactiae = assay: MIC, 20-strain panel
Method: as §1, §2

Streptococcus pyogenes = assay: MIC, 20-strain panel
Method: as §1, §2

[6] = E: Klebsiella pneumoniae subsp. pneumoniae
[7] = F: Salmonella enterica subsp. enterica Typhimurium
[8] = H: Staphylococcus aureus subsp. aureus
[9] = Klebsiella pneumoniae subsp. pneumoniae
[10] = Salmonella enterica subsp. enterica Typhimurium
[11] = Staphylococcus aureus subsp. aureus

Row | SMILES | MIC (E. coli BW25113; BW25113, B: E. coli BW25113) | MIC (Edwardsiella tarda; D: Edwardsiella tarda) | MIC (E. coli JW5503 (deltolC); C: E. coli JW5503 (deltolC)) | MIC (E. coli MG1655; MG1655, A: E. coli MG1655) | MIC [1, 6] | MIC [2, 7] | MIC (Shigella flexneri; G: Shigella flexneri) | MIC [3, 8] | MIC [4] | MIC [5] | MIC (Streptococcus agalactiae) | MIC (Streptococcus pyogenes) | MIC (E. coli BW25113; BW25113, E. coli BW25113) | MIC (Edwardsiella tarda) | MIC (E. coli JW5503 (deltolC); E. coli JW5503 (deltolC)) | MIC (E. coli MG1655; MG1655, E. coli MG1655) | MIC [1, 9] | MIC [2, 10] | MIC (Shigella flexneri) | MIC [3, 11]
1 | O=S(=O)(N[C@@H]1CCN(Cc2ccc(OCC(F)F)cc2)C1)c1cccc(OC(F)(F)F)c1 [Compound 89] | > 8 µg/mL | > 8 µg/mL | 0.5 µg/mL (≈ 1.04 µM) | > 8 µg/mL | > 8 µg/mL | 8 µg/mL (≈ 16.7 µM) | > 8 µg/mL | > 8 µg/mL | > 8 µg/mL | > 8 µg/mL | > 8 µg/mL | > 8 µg/mL |  |  |  |  |  |  |  | 
2 | Cc1c(CN2CC[C@@H](NS(=O)(=O)c3cccc(C#N)c3)C2)cnn1-c1ccccc1 [Compound 30] | > 8 µg/mL | > 8 µg/mL | > 8 µg/mL | > 8 µg/mL | > 8 µg/mL | > 8 µg/mL | > 8 µg/mL | > 8 µg/mL | > 8 µg/mL | > 8 µg/mL | > 8 µg/mL | > 8 µg/mL |  |  |  |  |  |  |  | 
3 | CSc1ccc(CN2CC[C@@H](NS(=O)(=O)c3cccc(OC(F)(F)F)c3)C2)cc1 [Compound 176] |  |  |  |  |  |  |  |  | > 8 µg/mL | > 8 µg/mL | > 8 µg/mL | > 8 µg/mL | > 8 µg/mL | > 8 µg/mL | 8 µg/mL (≈ 17.9 µM) | > 8 µg/mL | > 8 µg/mL | > 8 µg/mL | > 8 µg/mL | > 8 µg/mL
4 | CC(=O)c1cccc(S(=O)(=O)N[C@@H]2CCN(Cc3ccc(-c4ccccc4)cc3)C2)c1 [Compound 44] | > 8 µg/mL | > 8 µg/mL | 0.25 µg/mL (≈ 0.575 µM) | > 8 µg/mL | > 8 µg/mL | 8 µg/mL (≈ 18.4 µM) | > 8 µg/mL | > 8 µg/mL | > 8 µg/mL | > 8 µg/mL | > 8 µg/mL | > 8 µg/mL |  |  |  |  |  |  |  | 
5 | O=S(=O)(N[C@@H]1CCN(Cc2ccc(-c3ccncc3)cc2)C1)c1cccc(C(F)(F)F)c1 [Compound 14] | > 8 µg/mL | > 8 µg/mL | 2 µg/mL (≈ 4.33 µM) | > 8 µg/mL | > 8 µg/mL | > 8 µg/mL | > 8 µg/mL | > 8 µg/mL | > 8 µg/mL | > 8 µg/mL | > 8 µg/mL | > 8 µg/mL |  |  |  |  |  |  |  | 
6 | CC(C)Oc1ccc(CN2CC[C@@H](NS(=O)(=O)c3cc(S(C)(=O)=O)ccc3Cl)C2)cc1 [Compound 148] |  |  |  |  |  |  |  |  | > 8 µg/mL | > 8 µg/mL | > 8 µg/mL | > 8 µg/mL | > 8 µg/mL | > 8 µg/mL | 8 µg/mL (≈ 16.4 µM) | > 8 µg/mL | > 8 µg/mL | > 8 µg/mL | > 8 µg/mL | > 8 µg/mL
7 | N#Cc1ccc(S(=O)(=O)N[C@@H]2CCN(Cc3ccc(OC4CC4)cc3)C2)cn1 [Compound 159] |  |  |  |  |  |  |  |  | > 8 µg/mL | > 8 µg/mL | > 8 µg/mL | > 8 µg/mL | > 8 µg/mL | > 8 µg/mL | > 8 µg/mL | > 8 µg/mL | > 8 µg/mL | > 8 µg/mL | > 8 µg/mL | > 8 µg/mL
8 | O=S(=O)(N[C@@H]1CCN(Cc2ccc(-n3cccn3)cc2)C1)c1cccc(OC(F)(F)F)c1 [Compound 21] | > 8 µg/mL | > 8 µg/mL | 2 µg/mL (≈ 4.29 µM) | > 8 µg/mL | > 8 µg/mL | > 8 µg/mL | > 8 µg/mL | 8 µg/mL (≈ 17.1 µM) | 2 µg/mL (≈ 4.29 µM) | > 8 µg/mL | > 8 µg/mL | > 8 µg/mL |  |  |  |  |  |  |  | 
9 | O=S(=O)(N[C@@H]1CCN(Cc2ccc(-c3cccc(Cl)c3)cc2)C1)c1cccc(OC(F)(F)F)c1 [Compound 28] | > 8 µg/mL | > 8 µg/mL | > 8 µg/mL | > 8 µg/mL | > 8 µg/mL | > 8 µg/mL | > 8 µg/mL | > 8 µg/mL | 2 µg/mL (≈ 3.91 µM) | > 8 µg/mL | > 8 µg/mL | ~8 µg/mL (≈ 15.7 µM) |  |  |  |  |  |  |  | 
10 | CC(C)Oc1ccc(CN2CC[C@@H](NS(=O)(=O)c3cc(S(=O)(=O)c4ccccc4)cs3)C2)cc1 [Compound 29] | > 8 µg/mL | > 8 µg/mL | > 8 µg/mL | > 8 µg/mL | > 8 µg/mL | > 8 µg/mL | > 8 µg/mL | > 8 µg/mL | > 8 µg/mL | > 8 µg/mL | > 8 µg/mL | > 8 µg/mL |  |  |  |  |  |  |  | 
11 | CC(C)Oc1c(Cl)cc(CN2CC[C@@H](NS(=O)(=O)c3cccc(C(F)(F)F)c3)C2)cc1Cl [Compound 98] | > 8 µg/mL | > 8 µg/mL | > 8 µg/mL | > 8 µg/mL | > 8 µg/mL | > 8 µg/mL | > 8 µg/mL | > 8 µg/mL | > 8 µg/mL | > 8 µg/mL | > 8 µg/mL | > 8 µg/mL |  |  |  |  |  |  |  | 
12 | O=C1CCCN1c1ccc(CN2CC[C@@H](NS(=O)(=O)c3cccc(C(F)(F)F)c3)C2)cc1 [Compound 99] | > 8 µg/mL | > 8 µg/mL | 2 µg/mL (≈ 4.28 µM) | > 8 µg/mL | > 8 µg/mL | > 8 µg/mL | > 8 µg/mL | > 8 µg/mL | > 8 µg/mL | > 8 µg/mL | > 8 µg/mL | > 8 µg/mL |  |  |  |  |  |  |  | 
13 | CC(C)Oc1ccc(CN2CC[C@@H](NS(=O)(=O)c3cccc4cccnc34)C2)cc1 [Compound 84] | > 8 µg/mL | > 8 µg/mL | 1 µg/mL (≈ 2.35 µM) | > 8 µg/mL | > 8 µg/mL | > 8 µg/mL | > 8 µg/mL | > 8 µg/mL | > 8 µg/mL | > 8 µg/mL | > 8 µg/mL | > 8 µg/mL |  |  |  |  |  |  |  | 
14 | O=S(=O)(N[C@@H]1CCN(Cc2ccc(-c3ccccc3)cc2)C1)c1cc(C(F)(F)F)cc(C(F)(F)F)c1 [Compound 81] | > 8 µg/mL | > 8 µg/mL | > 8 µg/mL | > 8 µg/mL | > 8 µg/mL | > 8 µg/mL | > 8 µg/mL | > 8 µg/mL | 8 µg/mL (≈ 15.1 µM) | > 8 µg/mL | > 8 µg/mL | ~8 µg/mL (≈ 15.1 µM) |  |  |  |  |  |  |  | 
15 | O=S(=O)(N[C@@H]1CCN(Cc2ccc(-c3ccccn3)cc2)C1)c1cccc(C(F)(F)F)c1 [Compound 43] | > 8 µg/mL | > 8 µg/mL | 0.5 µg/mL (≈ 1.08 µM) | > 8 µg/mL | > 8 µg/mL | > 8 µg/mL | > 8 µg/mL | > 8 µg/mL | > 8 µg/mL | > 8 µg/mL | > 8 µg/mL | > 8 µg/mL |  |  |  |  |  |  |  | 
16 | CC(=O)c1cccc(S(=O)(=O)N[C@@H]2CCN(Cc3ccc(OC(C)C)cc3)C2)c1 [Compound 49] | > 8 µg/mL | > 8 µg/mL | 2 µg/mL (≈ 4.8 µM) | > 8 µg/mL | > 8 µg/mL | > 8 µg/mL | > 8 µg/mL | > 8 µg/mL | > 8 µg/mL | > 8 µg/mL | > 8 µg/mL | > 8 µg/mL |  |  |  |  |  |  |  | 
17 | O=S(=O)(N[C@@H]1CCN(Cc2ccc3c(c2)OCCO3)C1)c1cccc(OC(F)(F)F)c1 [Compound 62] | > 8 µg/mL | > 8 µg/mL | 8 µg/mL (≈ 17.4 µM) | > 8 µg/mL | > 8 µg/mL | > 8 µg/mL | > 8 µg/mL | > 8 µg/mL | > 8 µg/mL | > 8 µg/mL | > 8 µg/mL | > 8 µg/mL |  |  |  |  |  |  |  | 
18 | Cc1nn(C)c2ncc(S(=O)(=O)N[C@@H]3CCN(Cc4ccc(OC5CC5)cc4)C3)cc12 [Compound 157] |  |  |  |  |  |  |  |  | > 8 µg/mL | > 8 µg/mL | > 8 µg/mL | > 8 µg/mL | > 8 µg/mL | > 8 µg/mL | > 8 µg/mL | > 8 µg/mL | > 8 µg/mL | > 8 µg/mL | > 8 µg/mL | > 8 µg/mL
19 | O=S(=O)(N[C@@H]1CCN(Cc2ccc(-c3ccc(Cl)cc3)cc2)C1)c1cccc(C(F)(F)F)c1 [Compound 102] | > 8 µg/mL | > 8 µg/mL | ~8 µg/mL (≈ 16.2 µM) | > 8 µg/mL | > 8 µg/mL | > 8 µg/mL | > 8 µg/mL | 8 µg/mL (≈ 16.2 µM) | 4 µg/mL (≈ 8.08 µM) | > 8 µg/mL | > 8 µg/mL | ~8 µg/mL (≈ 16.2 µM) |  |  |  |  |  |  |  | 
20 | Cc1ccc(S(=O)(=O)N[C@@H]2CCN(Cc3ccc(-c4ccccc4)cc3)C2)cc1C#N [Compound 131] |  |  |  |  |  |  |  |  | > 8 µg/mL | > 8 µg/mL | > 8 µg/mL | > 8 µg/mL | > 8 µg/mL | > 8 µg/mL | 8 µg/mL (≈ 18.5 µM) | > 8 µg/mL | > 8 µg/mL | > 8 µg/mL | > 8 µg/mL | > 8 µg/mL
21 | CC(C)Oc1ccc(CN2CC[C@@H](NS(=O)(=O)c3cc(C(F)(F)F)ccc3F)C2)cc1 [Compound 4] | > 8 µg/mL | > 8 µg/mL | 0.5 µg/mL (≈ 1.09 µM) | > 8 µg/mL | > 8 µg/mL | > 8 µg/mL | > 8 µg/mL | > 8 µg/mL | > 8 µg/mL | > 8 µg/mL | > 8 µg/mL | > 8 µg/mL |  |  |  |  |  |  |  | 

Reference: patent US10253039B2, “Inhibitors of bacterial DNA gyrase with efficacy against gram-negative bacteria” (priority 2014, dated 2019)
